Reference: patent US20150038513A1, “ASSOCIATION BETWEEN N-HYDROXY-4-BENZAMIDE AND FOLFOX” (LES LABORATOIRES SERVIER, priority 2011, published 2015)

Experiments:
[1] = system: xenograft models; settings: in vivo, Buggy et al. 2006; cited from earlier work
[2] = system: histone deacetylase (HDAC); settings: described in WO2004/092115; cited from earlier work
[3] = system: cultured tumour cells; settings: cultured tumour cells in vitro; Buggy et al. 2006; cited from earlier work
[4] = system: colorectal cancer, a pancreatic cancer or a gastric cancer; assay: Clinical study of the association with FOLFOX; type: in vivo; settings: patients previously treated by FOLFOX
Procedure: A clinical study for testing the association of N-hydroxy-4-{2-[3-(N,N-dimethylamino-methyl)benzofuran-2-ylcarbonylamino]ethoxy}benzamide with FOLFOX is carried out on a maximum of 60 patients. Patients included in the study suffer from a colorectal cancer, a pancreatic cancer or a gastric cancer, and they have been treated by a treatment based on FOLFOX (i.e., alone or in association with other treatments) prior to their inclusion. More precisely, the study consists of 14-day cycles, each of the cycles being performed as follows: N-hydroxy-4-{2-[3-(N,N-dimethylaminomethyl)benzofuran-2-ylcarbonylamino]ethoxy}benzamide (in the form of a hydrochloride salt) is administered for 4 consecutive days whilst oxaliplatin and folinic acid are administered simultaneously on the third day, at the end of infusion of which 5-fluorouracil is administered continuously until the fifth day. […] At the end of a treatment cycle, the toxicity of the regimen associating N-hydroxy-4-{2-[3-(N,N-dimethylaminomethyl)benzofuran-2-ylcarbonylamino]ethoxy}benzamide and FOLFOX is assessed. […] Every four cycles, the efficacy of the treatment is assessed by evaluating the tumour response (CT scan, MRI, etc.). The acceptability profile is also evaluated (especially haematologic and cardiac toxicity).

SMILES: CN(C)Cc1c(C(=O)NCCOc2ccc(C(=O)NO)cc2)oc2ccccc12 [N-hydroxy-4-{2-[3-(N,N-dimethylaminomethyl)benzofuran-2-ylcarbonylamino]ethoxy}benzamide]
- tumour growth [1]: inhibits tumour growth
- HDAC inhibition [2]: powerful histone deacetylase (HDAC) inhibitor
- apoptosis [3]: induces apoptosis
- cell growth [3]: inhibition of cell growth
- efficacy of the treatment (tumour response) of the association with FOLFOX ([4]; hydrochloride salt p.o., 160-360 mg daily, 4 consecutive days, in association with FOLFOX, 14-day cycles): promising
- reversal of resistance to FOLFOX [4]: reverse the resistance to FOLFOX
